Test results reported in article PMC13377601, “Discovery of VU6066098: A Selective and CNS-Penetrant mGlu2 NAM with Robust Antidepressant‑, Antipsychotic‑, and Procognitive-like Activity in Rodents” (ACS Chemical Neuroscience, 2026).

Target: T1, human mGlu2 (Homo sapiens, UniProt Q14416)
T1 construct: expressed in transfected cells; host or cells: HEK293 stably co-expressing GIRK channels
Assay: mGlu2/GIRK thallium flux assay (human)
Type: cell-based
Details: NAM vs glutamate EC80

T1 sequence (Q14416 19-872): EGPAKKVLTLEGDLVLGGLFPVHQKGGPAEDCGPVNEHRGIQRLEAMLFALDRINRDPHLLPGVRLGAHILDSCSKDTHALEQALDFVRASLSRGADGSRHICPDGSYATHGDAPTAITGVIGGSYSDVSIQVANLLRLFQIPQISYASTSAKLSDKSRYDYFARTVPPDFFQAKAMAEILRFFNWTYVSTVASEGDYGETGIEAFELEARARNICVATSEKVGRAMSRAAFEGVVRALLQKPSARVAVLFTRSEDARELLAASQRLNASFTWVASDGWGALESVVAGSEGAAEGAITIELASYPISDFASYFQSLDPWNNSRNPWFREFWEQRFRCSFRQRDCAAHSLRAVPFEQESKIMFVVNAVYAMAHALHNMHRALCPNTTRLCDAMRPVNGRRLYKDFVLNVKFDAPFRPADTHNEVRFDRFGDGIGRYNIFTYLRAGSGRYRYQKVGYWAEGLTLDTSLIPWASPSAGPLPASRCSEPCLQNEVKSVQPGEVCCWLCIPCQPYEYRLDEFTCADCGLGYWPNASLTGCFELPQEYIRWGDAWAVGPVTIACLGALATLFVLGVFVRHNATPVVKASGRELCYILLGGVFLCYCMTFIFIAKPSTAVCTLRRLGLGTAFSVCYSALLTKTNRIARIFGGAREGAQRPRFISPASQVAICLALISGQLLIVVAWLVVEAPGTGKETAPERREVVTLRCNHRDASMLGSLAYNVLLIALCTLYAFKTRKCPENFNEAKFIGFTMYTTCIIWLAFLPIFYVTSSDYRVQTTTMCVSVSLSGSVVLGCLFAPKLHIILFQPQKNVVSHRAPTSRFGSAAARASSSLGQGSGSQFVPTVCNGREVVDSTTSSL

- IC50: 78 nM
Structure (SMILES): Cn1ccc(COc2cnc(C(N)=O)cc2-c2ccc(F)cc2)n1 [NAM 5]
